{
  "source": "paper PMC10089180",
  "about": "(Proceedings of the National Academy of Sciences of the …, 2023)",
  "origin": "cited, not measured here",
  "molecules": {"B1": {"name": "Pre-prochemerin: 163-amino acid protein without chemotactic activity (protein, UniProt Q99969 1-163, looked up)", "chain": "MRRLLIPLALWLGAVGVGVAELTEAQRRGLQVALEEFHKHPPVQWAFQETSVESAVDTPFPAGIFVRLEFKLQQTSCRKRDWKKPECKVRPNGRKRKCLACIKLGSEDKVLGRLVHCPIETQVLREAEEHQETQCLRVQRAGEDPHSFYFPGQFAFSKALPRS", "modifications": "full-length"}, "B2": {"name": "prochemerin (21-163): Removal of the N-terminal signal peptide results in prochemerin (21-163) (protein, UniProt Q99969 21-163, looked up)", "pro-form": "ELTEAQRRGLQVALEEFHKHPPVQWAFQETSVESAVDTPFPAGIFVRLEFKLQQTSCRKRDWKKPECKVRPNGRKRKCLACIKLGSEDKVLGRLVHCPIETQVLREAEEHQETQCLRVQRAGEDPHSFYFPGQFAFSKALPRS", "modifications": "pro-form"}},
  "key": {"[1]": {"settings": "no reference given"}, "chemerin receptor": {"test_system": "chemerin receptor", "settings": "Y1 missing or substituted by alanine; ref [17]"}, "FPR1 [2]": {"target": "FPR1", "settings": "ref [38]"}, "FPR1 [3]": {"test_system": "FPR1", "settings": "tripeptide; ref [26], [27]"}, "[4]": {"settings": "ref [15], [16]"}},
  "data": [
    {"molecule": "Asp-Arg-Val-Tyr-Ile-His-Pro-Phe [AngII]", "values": [
      {"measurement": "chemotactic activity", "setting": "[1]", "value": "does not display chemotactic activity"}
    ]},
    {"molecule": "Y1 missing: C9 when Y1 was missing (FPGQFAFS; UniProt Q99969 150-157, looked up, fragment)", "values": [
      {"measurement": "reduced activity in functional assays", "setting": "chemerin receptor", "value": "~ 30%"}
    ]},
    {"molecule": "fMLF", "values": [
      {"measurement": "dissociation constant", "setting": "FPR1 [2]", "value": "low nanomolar range"},
      {"measurement": "agonistic activity at FPR1", "setting": "FPR1 [3]", "value": "full agonistic activity"}
    ]},
    {"molecule": "B1", "values": [
      {"measurement": "chemotactic activity / bioactivity of chemerin form", "setting": "[4]", "value": "without chemotactic activity"}
    ]},
    {"molecule": "B2", "values": [
      {"measurement": "chemotactic activity / bioactivity of chemerin form", "setting": "[4]", "value": "low bioactivity"}
    ]}
  ]
}
